Where “and” joins values, the source holds several entries; their conditions need not be identical. Identical values can stand only once. Entries after “also recorded” stand apart in the source; their conditions may differ. Like-named read-outs stand apart in the source and are kept apart here. No end group written: not given here. Cys(S-Me) = S-methylated cysteine
Key:
thrombin [1] = molecular target: T1, thrombin (Homo sapiens, UniProt P00734); experiment: SPR binding of porphyrins to immobilized thrombin; parameters: human α‐thrombin (HCT‐0020); purchased CellSystems GmbH HCT-0020
Description: (§1) SPR experiments were conducted on a Biacore 8K instrument (Cytiva) to investigate the interaction of PZ with heme, as established before.^[ [19] ^, [35] ^, [37] ^, [43] ^] In brief, PZ (10 µg mL^−1) was dissolved in 10 mM sodium acetate buffer (pH 3.5) and immobilized onto a CM5 sensor chip via standard amine coupling, resulting in a final immobilization level of 767 RU. Heme (stock solution in 30 mM NaOH) was further diluted in running buffer (10 mM HEPES, 150 mM NaCl, and 0.05% Tween 20, pH 7.4). The same was performed with zinc (II) protoporphyrin IX and protoporphyrin IX (Frontier Scientific). Binding kinetics were assessed by injecting seven increasing concentrations of heme (187.5–12,000 nM) in a single‐cycle kinetics format at 25 °C and a flow rate of 30 µL min^−1. Data analysis was performed by global fitting using Biacore Insight Evaluation Software, version 3.0.12.15655 (Cytiva).
Figure S7. Heme binds to thrombin. For SPR analysis, thrombin (10 µg/ml) was dissolved in 10 mM sodium acetate buffer (pH 6.0) and immobilized onto a CM5 sensor chip via standard amine coupling, resulting in a final immobilization level of 1826.1 RU. Binding kinetics were assessed by injecting six increasing concentrations of heme (187.5 – 6,000 nM) in a single-cycle kinetics format at 25°C and a flow rate of […]
transient nature of heme binding to thrombin. […]

Human protein Z (PZ) = molecular target: T2, Human protein Z (PZ) (Homo sapiens, UniProt P22891); experiment: SPR binding of porphyrins to immobilized PZ (single-cycle kinetics); conditions: tested concentration range 187.5 nM – 12 µM
T2 construct: purchased CellSystems GmbH HCPZ-0220
Description: as §1

[2] = UV/vis spectroscopic interaction studies of PZ-derived peptides with heme; assay type: binding; conditions: peptide 10 µM; for heme binding on peptide level: heme 0.4-40 µM; for Kd: read-out: K D (heme-binding affinity of peptide)
Description: Heme binding to PZ‐derived peptides 1 –5 was analyzed by UV/vis spectroscopy, as previously reported for other protein‐derived peptides as well.^[ [18] ^, [19] ^, [35] ^, [43] ^, [44] ^] In brief, each peptide (10 µM) was incubated for 30 min with heme in 100 mM HEPES buffer (pH 7.0) for 30 min. Absorbance spectra were recorded in the range of 300–600 nm on a Infinite 200 Pro spectrophotometer. Difference spectra were generated by subtraction of the single absorbance data of heme and the peptide, respectively, from the data of the heme–peptide complex. Difference spectra were plotted with GraphPad Prism, version 10.5.0. K D values were calculated using the equation from Pîrnău and Bogdan (2008).^[ [45] ^]

thrombin [3] = tested on: thrombin; parameters: method as in PMID 2040612; conditions: PZ:thrombin ratios of ≈1:9 to ≈5:1; cited from earlier work
human α-thrombin = tested on: T3, human α-thrombin; experiment: Chromogenic thrombin amidolytic activity assay (S-2238); assay type: biochemical
T3 construct: human α‐thrombin (HCT‐0020); purchased CellSystems GmbH HCT-0020
Description: (§2) Herein, an earlier established chromogenic thrombin amidolytic activity assay system was thus used, inspired by Hogg and Stenflo.^[ [19] ^, [28] ^] PZ (final concentration: 10 nM) was first incubated for 30 min with different heme concentrations (final concentrations: 1–1000 nM). Afterward, the heme–PZ mixture was incubated with thrombin for 10 min and the PZ–thrombin mixture (50 µL; final thrombin concentration: 15 nM) was transferred onto a 96‐well plate (Greiner Bio‐One GmbH). Finally, 5 µL of the substrate solution (H‐D‐Phe‐Pip‐Arg‐pNA x 2 HCl (S‐2238); final concentration: 273 µM) was added. Immediately, kinetic measurements at 405 nm were started, using an Infinite 200 Pro spectrophotometer. Heme only, thrombin only, and PZ‐heme only served as controls. For evaluation, the thrombin activity was determined as the change of absorbance per second and always normalized against the basal thrombin activity without PZ. Data were analyzed as the mean of triplicate and the IC50 was calculated by nonlinear regression (GraphPad Prism, version 10.5.0).

thrombin [4] = molecular target: thrombin; parameters: method as in PMID 2040612; conditions: read-out: K D (PZ direct binding to thrombin); cited from earlier work
[5] = molecular target: PZ-dependent protease inhibitor (ZPI); parameters: method as in PMID 22786881, PMID 24960590; conditions: read-out: K D (PZ interaction with ZPI via peptidase-like domain); cited from earlier work
PZ = molecular target: T4, PZ (Homo sapiens, UniProt P22891); experiment: aPTT-based one-stage clotting assay: anticoagulant function of PZ against FXa in the presence of heme; assay type: biochemical
T4 construct: purchased CellSystems GmbH HCPZ-0220 (PZ); HCXA-0060 (FXa)
Description: To estimate an effect on molecular level, the structure of the PZ–ZPI complex (PDB: 3H5C^[ [42] ^]) was first inspected with heme attached to PZ. The anticoagulant function of PZ was then analyzed in the presence of heme by a one‐stage clotting assay, which was inspired by previous work from us and others.^[ [19] ^, [27] ^] The aPTT‐based assay was performed with the ball coagulometer KC 4 A (Amelung, Lemgo, Germany). PZ (320 nM) was preincubated with different concentrations of heme (0–100 µM) for 30 min in 1x PBS, pH 7.4. Afterward, 50 µL of the PZ–heme mixture was incubated with 50 µL of Actin FSL, 50 µl CaCl2 (30 mM), and 50 µL FXa (0.5 nM) at 37 °C for 3 min. Finally, 50 µL citrated pooled plasma was added and the clotting time was automatically recorded. The following mixtures served as controls: 1) 50 µL PBS‐heme + 50 µL Actin FSL + 50 µL CaCl2 + 50 µL FXa + 50 µL citrated plasma, 2) 50 µL PBS‐heme + 50 µL Actin FSL + 50 µL CaCl2 + 50 µL PBS + 50 µL citrated plasma, 3) 50 µL PZ–heme + 50 µL Actin FSL + 50 µL CaCl2 + 50 µL PBS + 50 µL citrated plasma, 4) 50 µL PZ‐PBS + 50 µL Actin FSL + 50 µL CaCl2 + 50 µL FXa + 50 µL citrated plasma, 5) 50 µL PZ‐PBS + 50 µL Actin FSL + 50 µL CaCl2 + 50 µL PBS + 50 µL citrated plasma, 6) 50 µL PBS + 50 µL Actin FSL + 50 µL CaCl2 + 50 µL FXa + 50 µL citrated plasma, and 7) 50 µL PBS + 50 µL Actin FSL + 50 µL CaCl2 + 50 µL PBS + 50 µL citrated plasma. Final concentrations in the approach were 6 mM CaCl2, 0–20 µM heme, 32 nM and PZ, 0.1 nM FXa. Data were normalized against the clotting time of citrated plasma only (control (7)) and evaluated as the mean of triplicates. The IC50 was determined by fitting the curves with nonlinear regression (GraphPad Prism, version 10.5.0).

[6] = Substrate control of the chromogenic assay without thrombin; assay type: biochemical; conditions: no thrombin; heme 1 – 1000 nM, PZ 10 nM; thrombin = 100 %
Description: as §2, with “10.5.0). […]” for “10.5.0).”
thrombinheme (0 nM)heme (1 nM) thrombin heme (3.16 nM)heme (10 nM)heme (31.6 nM)heme (100 nM)heme (316 nM)heme (1000 nM)PZ+heme (0 nM)PZ+heme (1 nM) PZ+heme (3.16 nM)PZ+heme (10 nM)PZ+heme (31.6 nM)PZ+heme (100 nM)PZ+heme (316 nM)PZ+heme (1000 nM)
Figure S5. […]

[7] = parameters: method as in PMID 27584039; conditions: read-out: K D (PZ interaction with phospholipid surfaces via Gla domain); cited from earlier work
thrombin [8] = molecular target: T1, thrombin; conditions: cited from earlier work
ZPI (Homo sapiens) = ZPI (Homo sapiens) (UniProt Q9UK55); conditions: cited from earlier work
[9] = 100 mM HEPES pH 7.0, 30 min, stoichiometry 1:1

ZPI (Homo sapiens), sequence (Q9UK55 22-444): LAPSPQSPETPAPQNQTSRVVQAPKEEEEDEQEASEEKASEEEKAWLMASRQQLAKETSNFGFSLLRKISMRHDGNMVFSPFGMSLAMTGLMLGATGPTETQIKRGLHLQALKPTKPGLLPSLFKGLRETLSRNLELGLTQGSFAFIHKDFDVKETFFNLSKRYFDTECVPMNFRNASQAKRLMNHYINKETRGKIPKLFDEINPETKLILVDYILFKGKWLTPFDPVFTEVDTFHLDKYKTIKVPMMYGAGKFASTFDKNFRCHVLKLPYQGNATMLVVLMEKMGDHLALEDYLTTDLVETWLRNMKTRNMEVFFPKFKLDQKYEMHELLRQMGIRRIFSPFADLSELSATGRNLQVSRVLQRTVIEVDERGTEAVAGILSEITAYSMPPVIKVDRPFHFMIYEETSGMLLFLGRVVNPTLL

With C=CC1=C(C)c2cc3[nH]c(cc4nc(cc5[nH]c(cc1n2)c(C)c5CCC(=O)O)C(CCC(=O)O)=C4C)c(C)c3C=C [protoporphyrin IX] the Kd (thrombin [1]; heterogeneous ligand model, read-out: KD1 (porphyrin binding to thrombin)) was 150 nM, the Kd (thrombin [1]; read-out: KD2 (porphyrin binding to thrombin)) was 2200 nM and the “binding to PZ” value (Human protein Z (PZ)) was “did not bind”.

In the case of C=CC1=C(C)c2cc3[n-]c(cc4[n-]c(cc5nc(cc1n2)C(C)=C5C=C)c(C)c4CCC(=O)O)c(CCC(=O)O)c3C.[Zn+2] [zinc protoporphyrin IX], the “binding to PZ” value (Human protein Z (PZ)) is reported as “did not bind”.

In the case of AKNEC(Me)HPERT [Peptide 2], the “K D (heme-binding affinity of peptide)” value [2, 9] is reported as “n.b” and the “heme binding on peptide level” value [2] is reported as “did not bind heme”.

With “C(Me)SLLHRNITVKTYFNRT ({Cys(S-Me)}-SLLHRNITVKTYFNRT) [Peptide 3, PZ-derived peptide around H183/Y191 with methylated cysteine, positions 179 - 195]” the Kd [2, 9] was 1130 ± 500 nM and the “heme binding on peptide level” value [2] was “bound heme”.

For FWRRYKGGS [Peptide 1], the Kd [2, 9] was 1040 ± 360 nM and the “heme binding on peptide level” value [2] was “bound heme”.

With “IKITHVHVHMRYD [Peptide 4, PZ-derived peptide around H206/H208/H210, positions 202 - 214]” the Kd [2, 9] was 790 ± 360 nM and the “heme binding on peptide level” value [2] was “bound heme”.

In the case of “PZ: Human protein Z, vitamin-K-dependent glycoprotein, anticoagulant cofactor; obtained from CellSystems GmbH”, the “inhibition of the activity of thrombin in the presence of PZ” value (thrombin [3]) is listed as “≈ 20%”, the “amidolytic activity of thrombin at highest PZ concentration” value (human α-thrombin; PZ 1 µM, ratio ≈30:1 PZ:thrombin) is listed as “≈ 140%” and the “inhibitory effect toward the amidolytic activity of thrombin” value (human α-thrombin; PZ:thrombin ratios of 1:15 to 21:1, without heme) is listed as “≈ 20% and 20%”. For the same compound, the “remaining amidolytic activity of thrombin” value (human α-thrombin; PZ:thrombin ratios of 1:30 to ≈10:1, thrombin 30 nM) was “≈ 5080%”, the Kd (thrombin [4]) was 110 to 150 nM and the Kd [5] was ~1 nM. For the same compound, the “impact alone on the procoagulant function of FXa or on clotting of pure plasma (aPTT)” value (PZ; controls, heme 0.06 – 20 µM, PZ 32 nM, FXa 0.1 nM) was “not significantly influenced; also recorded: did not exert any significant impact”, the “effect of PZ on the procoagulant effect of FXa” value (PZ; without heme) was “block the procoagulant effect of FXa completely” and the “relative amidolytic activity toward substrate S-2238” value [6] was ~ 0%. The Kd [7] was ~48000 nM.

For Protein Z (from UniProt P22891), the Kd (thrombin [8]) is given as 130 nM.

For “Protein Z peptidase-like domain (from UniProt P22891)”, the Kd (ZPI (Homo sapiens)) is given as 1 nM.

With “VTREHRGSW [Peptide 5, PZ-derived peptide around H321, positions 317 - 325]” the “heme binding on peptide level” value [2] was “did not bind heme”.

— article PMC12781162, “Human Protein Z as the Second Known Heme‐Binding Protein from the Endogenous Blood Coagulation Inhibitor System” (Chembiochem, 2025)
